What follows are compounds tested against human NEP (Homo sapiens (Human), UniProt P08473) (assay: In vitro enzyme inhibition assay at human NEP). Conditions: pKi, recombinant human NEP, fluorogenic peptide substrate, 37° C.
Sequence of human NEP (P08473 52-750): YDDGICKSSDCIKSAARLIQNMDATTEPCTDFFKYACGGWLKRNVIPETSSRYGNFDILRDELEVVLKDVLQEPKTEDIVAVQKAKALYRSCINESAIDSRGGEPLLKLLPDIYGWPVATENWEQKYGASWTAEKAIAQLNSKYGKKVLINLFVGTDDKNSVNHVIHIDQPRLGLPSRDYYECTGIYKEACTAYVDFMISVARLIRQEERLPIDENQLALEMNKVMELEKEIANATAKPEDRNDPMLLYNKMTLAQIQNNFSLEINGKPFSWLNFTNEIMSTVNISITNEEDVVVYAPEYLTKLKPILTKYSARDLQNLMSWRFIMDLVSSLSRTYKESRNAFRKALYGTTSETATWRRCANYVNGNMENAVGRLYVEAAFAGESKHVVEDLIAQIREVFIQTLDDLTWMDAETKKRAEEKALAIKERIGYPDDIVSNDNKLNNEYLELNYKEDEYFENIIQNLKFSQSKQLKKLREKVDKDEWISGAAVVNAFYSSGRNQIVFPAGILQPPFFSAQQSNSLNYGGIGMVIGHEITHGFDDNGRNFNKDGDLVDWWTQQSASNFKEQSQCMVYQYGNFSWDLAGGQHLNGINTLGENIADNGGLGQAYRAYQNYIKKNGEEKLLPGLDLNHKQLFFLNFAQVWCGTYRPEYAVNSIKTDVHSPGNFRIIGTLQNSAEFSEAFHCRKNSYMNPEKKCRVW
For CC(C)c1coc(C(=O)N[C@H](Cc2ccc(-c3cc(Cl)ccc3F)cc2)C[C@@H](NC(=O)[C@H](N)C(C)C)C(=O)O)n1 [Example 38-1, (2R,4R)-2-((R)-2-Amino-3-methylbutyrylamino)-5-(5′-chloro-2′-fluorobiphenyl-4-yl)-4-[(4-isopropyloxazole-2-carbonyl)amino]pentanoic Acid], the Ki was 3.16 to 10 nM. With O=C(N[C@H](Cc1ccc(-c2cc(Cl)ccc2F)cc1)CC(C(=O)O)C1CCNCC1)c1cnn[nH]1 (stereo in doubt) [Example 59, (S)-5-(5′-Chloro-2′-fluorobiphenyl-4-yl)-2-piperidin-4-yl-4-[(3H-[1,2,3]triazole-4-carbonyl)amino]pentanoic Acid] the Ki was ≤ 1 nM. With COCCNC[C@H](C[C@@H](Cc1ccc(-c2cc(Cl)ccc2F)cc1)NC(=O)c1cnn[nH]1)C(=O)O (single isomer, unassigned) [Example 49a] the Ki was ≤ 1 nM. CNCC(=O)N[C@H](C[C@@H](Cc1ccc(-c2cc(Cl)ccc2F)cc1)NC(=O)c1cnn[nH]1)C(=O)O [Example 65, (2R,4R)-5-(5′-Chloro-2′-fluorobiphenyl-4-yl)-2-(2-methylaminoacetylamino)-4-[(3H-[1,2,3]triazole-4-carbonyl)amino]pentanoic Acid] gave a Ki of 1.26 to 3.16 nM. With N[C@H](C[C@@H](Cc1ccc(-c2cc(Cl)ccc2F)cc1)NC(=O)c1c[nH]nn1)C(=O)O [Example 13, (2R,4R)-2-Amino-5-(5′-chloro-2′-fluorobiphenyl-4-yl)-4-[(1H-[1,2,3]triazole-4-carbonyl)amino]pentanoic Acid] the Ki was ≤ 1 nM. Work on O=C(N[C@H](Cc1ccc(-c2ccccc2)cc1)CC(C(=O)O)C1CCOCC1)c1cnn[nH]1 (stereo in doubt) [Example 58, (S)-5-Biphenyl-4-yl-2-(tetrahydropyran-4-yl)-4-[(3H-[1,2,3]triazole-4-carbonyl)amino]pentanoic Acid] yielded a Ki of 3.16 to 10 nM. In the case of CCc1cc(C(=O)N[C@H](Cc2ccc(-c3cc(Cl)ccc3F)cc2)C[C@@H](N)C(=O)O)on1 [Example 16-1, (2R,4R)-2-Amino-5-(5′-chloro-2′-fluorobiphenyl-4-yl)-4-[(3-ethylisoxazole-5-carbonyl)-amino]pentanoic acid], the Ki is reported as 1.26 to 3.16 nM. O=C(N[C@H](Cc1ccc(-c2cc(Cl)ccc2F)cc1)C[C@@H](Cc1nnn[nH]1)C(=O)O)c1cnn[nH]1 [Example 63, (2S,4S)-5-(5′-Chloro-2′-fluorobiphenyl-4-yl)-2-(1H-tetrazol-5-ylmethyl)-4-[(3H-[1,2,3]triazole-4-carbonyl)amino]pentanoic Acid] showed a Ki of 1.26 to 3.16 nM. With O=C(N[C@H](Cc1ccc(-c2cc(Cl)ccc2F)cc1)C[C@@H](CN1CC(CO)(CO)C1)C(=O)O)c1cnn[nH]1 [Example 92b, (2S,4S)-2-(3,3-Bis-hydroxymethylazetidin-1-ylmethyl)-5-(5′-chloro-2′-fluorobiphenyl-4-yl)-4-[(3H-[1,2,3]triazole-4-carbonyl)amino]pentanoic Acid] the Ki was ≤ 1 nM. CC(C)c1coc(C(=O)N[C@H](Cc2ccc(-c3cc(Cl)ccc3F)cc2)C[C@@H](NC(=O)[C@@H](N)C(C)C)C(=O)O)n1 [Example 38-2, (2R,4R)-2-((S)-2-Amino-3-methylbutyrylamino)-5-(5′-chloro-2′-fluorobiphenyl-4-yl)-4-[(4-isopropyloxazole-2-carbonyl)-amino]pentanoic Acid] was tested, and the Ki was 1.26 to 3.16 nM. CC1(O)CN(C[C@H](C[C@@H](Cc2ccc(-c3cc(Cl)ccc3F)cc2)NC(=O)c2c[nH]nn2)C(=O)O)C1 [Example 101b, (2S,4S)-5-(5′-Chloro-2′-fluorobiphenyl-4-yl)-2-(3-hydroxy-3-methylazetidin-1-ylmethyl)-4-[(1H-[1,2,3]triazole-4-carbonyl)amino]pentanoic Acid] was tested, and the Ki was ≤ 1 nM. CC(C)c1coc(C(=O)N[C@H](Cc2ccc(-c3cc(Cl)ccc3F)cc2)C[C@@H](CCN)C(=O)O)n1 [Example 24-1, (2R,4S)-2-(2-Aminoethyl)-5-(5′-chloro-2′-fluorobiphenyl-4-yl)-4-[(4-isopropyloxazole-2-carbonyl)amino]pentanoic acid] showed a Ki of 3.16 to 10 nM. N[C@H](C[C@@H](Cc1ccc(-c2cc(Cl)ccc2F)cc1)NC(=O)c1ccc(Cl)cn1)C(=O)O [Example 16-7, (2R,4R)-2-Amino-5-(5′-chloro-2′-fluorobiphenyl-4-yl)-4-[(5-chloropyridine-2-carbonyl)-amino]pentanoic acid] gave a Ki of 3.16 to 10 nM. With CC(=O)N1CCC(C(C[C@@H](Cc2ccc(-c3ccccc3)cc2)NC(=O)c2cnn[nH]2)C(=O)O)CC1 (stereo in doubt) [Example 60, (S)-2-(1-Acetylpiperidin-4-yl)-5-biphenyl-4-yl-4-[(3H-[1,2,3]triazole-4-carbonyl)amino]pentanoic Acid] the Ki was 3.16 to 10 nM.

Same assay, conditions: recombinant human NEP, fluorogenic peptide substrate, 37° C.
N[C@H](C[C@@H](Cc1ccc(-c2cc(Cl)ccc2F)cc1)NC(=O)c1nn(-c2ccccc2)c(=O)[nH]1)C(=O)O [Example 16-35, (2R,4R)-2-Amino-5-(5′-chloro-2′-fluorobiphenyl-4-yl)-4-[(5-oxo-1-phenyl-4,5-dihydro-1H-[1,2,4]triazole-3-carbonyl)amino]p entanoic acid] was tested, and the pKi was “≧9.0”. For C[C@H](N)C(=O)N[C@H](C[C@@H](Cc1ccc(-c2cc(Cl)ccc2F)cc1)NC(=O)c1cnn[nH]1)C(=O)O [Example 37-1, (2R,4R)-2-((S)-2-Aminopropionylamino)-5-(5′-chloro-2′-fluorobiphenyl-4-yl)-4-[(3H-[1,2,3]triazole-4-carbonyl)amino]pentanoic acid], the pKi was “≧9.0”. CC(=O)NC[C@H](C[C@@H](Cc1ccc(-c2cc(Cl)ccc2F)cc1)NC(=O)c1c[nH]nn1)C(=O)O [Example 28, (2S,4S)-2-(Acetylaminomethyl)-5-(5′-chloro-2′-fluoro-biphenyl-4-yl)-4-[(1H-[1,2,3]triazole-4-carbonyl)amino]pentanoic Acid] was tested, and the pKi was “≧9.0”. For Cc1cnc(C(=O)N[C@H](Cc2ccc(-c3cc(Cl)ccc3F)cc2Cl)C[C@@H](N)C(=O)O)o1 [Example 18-3, (2R,4R)-2-Amino-5-(3,5′-dichloro-2′-fluorobiphenyl-4-yl)-4-[(5-methyloxazole-2-carbonyl)amino]pentanoic acid], the pKi was “≧9.0”. For CC(C)(N)[C@H](C[C@@H](Cc1ccc(-c2cc(Cl)ccc2F)cc1)NC(=O)c1cnn[nH]1)C(=O)O [Example 104, (2S,4S)-2-(1-Amino-1-methylethyl)-5-(5′-chloro-2′-fluorobiphenyl-4-yl)-4-[(3H-[1,2,3]triazole-4-carbonyl)amino]pentanoic Acid], the pKi was “≧9.0”. For Cc1cnc(C(=O)N[C@H](Cc2ccc(-c3cc(Cl)ccc3F)cc2)C[C@@H](CN)C(=O)O)o1 [Example 21-3, (2S,4S)-2-Aminomethyl-5-(5′-chloro-2′-fluorobiphenyl-4-yl)-4-[(5-methyl-oxazole-2-carbonyl)amino]pentanoic acid], the pKi was “≧9.0”. For CCOc1nc(C(=O)N[C@H](Cc2ccc(-c3cc(Cl)ccc3F)cc2)C[C@@H](NC(=O)OC)C(=O)O)co1 [Example 30-7, (2R,4R)-5-(5′-Chloro-2′-fluorobiphenyl-4-yl)-4-[(2-ethoxy-oxazole-4-carbonyl)amino]-2-methoxycarbonylaminopentanoic acid], the pKi was “≧9.0”. In the case of CCOC[C@H](C[C@@H](Cc1ccc(-c2ccccc2)cc1)NC(=O)c1c[nH]nn1)C(=O)O [Example 10, (2S,4S)-5-Biphenyl-4-yl-2-ethoxymethyl-4-[(1H-[1,2,3]triazole-4-carbonyl)amino]pentanoic Acid], the pKi is reported as “≧9.0”.
